Source: publication PMC4598832 (Scientific Reports, 2015)
Numbering of substitutions follows the chain as printed. “And” between values parts separate entries of the source, which are not always exact repeats. Equal values may be shown once. “Also recorded” adds a separate entry of the source. Read-outs that look alike come from different tables or passages of the source.

Assays:
Olfr73 (mOR-EG) wt = target: T1, Olfr73 (mOR-EG) wt (Mus musculus, UniProt Q920P2); experiment: cAMP reporter gene (SEAP) assay, Olfr73 wild type in Hana3A cells; format: cell-based
T1 construct: Rho (rhodopsin) tag; Myc; Flag; expressed in transfected cells; host or cells: Hana 3A cells
T1 sequence (Q920P2 1-313): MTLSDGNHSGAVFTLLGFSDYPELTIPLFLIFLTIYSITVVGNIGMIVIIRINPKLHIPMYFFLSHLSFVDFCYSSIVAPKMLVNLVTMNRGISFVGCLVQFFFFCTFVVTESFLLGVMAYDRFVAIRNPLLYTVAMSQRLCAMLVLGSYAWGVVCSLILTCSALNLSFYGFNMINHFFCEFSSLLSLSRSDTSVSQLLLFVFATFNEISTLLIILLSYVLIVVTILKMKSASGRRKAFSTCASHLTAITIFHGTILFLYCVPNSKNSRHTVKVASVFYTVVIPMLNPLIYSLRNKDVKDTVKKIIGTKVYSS

Olfr73 S113A = target: T2, Olfr73 S113A (Mus musculus, UniProt Q920P2, S113A); experiment: cAMP reporter gene (SEAP) assay, Olfr73 S113A in Hana3A cells; format: cell-based
T2 construct: Rho (rhodopsin) tag; expressed in transfected cells; host or cells: Hana 3A cells
T2 sequence (Q920P2 1-313 S113A): T1 sequence (Q920P2 1-313) with S113A

Olfr73 E208A = target: T3, Olfr73 E208A (Mus musculus, UniProt Q920P2, E208A); experiment: cAMP reporter gene (SEAP) assay, Olfr73 E208A in Hana3A cells; format: cell-based
T3 construct: Rho (rhodopsin) tag; Myc; expressed in transfected cells; host or cells: Hana 3A cells
T3 sequence (Q920P2 1-313 E208A): T1 sequence (Q920P2 1-313) with E208A

Olfr73 Y260F = target: T4, Olfr73 Y260F (Mus musculus, UniProt Q920P2, Y260F); experiment: cAMP reporter gene (SEAP) assay, Olfr73 Y260F in Hana3A cells; format: cell-based
T4 construct: Rho (rhodopsin) tag; Myc; expressed in transfected cells; host or cells: Hana 3A cells
T4 sequence (Q920P2 1-313 Y260F): T1 sequence (Q920P2 1-313) with Y260F
Description: Confluent Hana 3A cells (35000 cells per well) cultured in a 96-well plate at 37 °C (Perkin-Elmer) were transfected with 0.15 μg of wild-type or mutated Olfr73 or Olfr74 encoding plasmid DNAs and 0.15 μg of the cAMP response element secreted alkaline phosphatase reporter plasmid (pCRE-SEAP) using Lipofectamine 2000 (Invitrogen). Cells were induced 8 h after transfection with cell medium containing the ligand, or cell medium alone. […] Experiments were carried out in triplicates and in parallel with a mock control (cells transfected with non-coding plasmid DNA).

Olfr73 S113A-E208A-Y260F = target: T5, Olfr73 S113A-E208A-Y260F (Mus musculus, UniProt Q920P2, E208A/S113A/Y260F); experiment: cAMP reporter gene (SEAP) assay, Olfr73 triple mutant in Hana3A cells; format: cell-based
T5 construct: Rho (rhodopsin) tag; Myc; expressed in transfected cells; host or cells: Hana 3A cells
T5 sequence (Q920P2 1-313 S113A/E208A/Y260F): T1 sequence (Q920P2 1-313) with S113A, E208A, Y260F

Olfr74 (mOR-EV) wt = target: T6, Olfr74 (mOR-EV) wt (Mus musculus, UniProt Q920P1); experiment: cAMP reporter gene (SEAP) assay, Olfr74 wild type in Hana3A cells; format: cell-based; conditions: for activation of Olfr74 wild type: result in words
T6 sequence (Q920P1 1-318): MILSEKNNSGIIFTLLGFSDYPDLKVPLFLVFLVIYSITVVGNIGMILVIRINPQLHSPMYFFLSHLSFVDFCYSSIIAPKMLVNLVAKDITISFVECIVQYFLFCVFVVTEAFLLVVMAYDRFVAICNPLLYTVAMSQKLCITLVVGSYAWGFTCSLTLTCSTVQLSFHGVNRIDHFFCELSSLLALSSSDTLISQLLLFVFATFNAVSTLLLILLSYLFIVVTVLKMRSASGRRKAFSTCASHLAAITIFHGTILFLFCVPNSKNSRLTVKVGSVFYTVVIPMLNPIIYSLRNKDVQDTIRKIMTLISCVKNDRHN

Olfr74 A113S = Olfr74 A113S (Mus musculus, UniProt Q920P1, A113S); experiment: cAMP reporter gene (SEAP) assay, Olfr74 A113S in Hana3A cells; format: cell-based
Description: (§1) Confluent Hana 3A cells (35000 cells per well) cultured in a 96-well plate at 37 °C (Perkin-Elmer) were transfected with 0.15 μg of wild-type or mutated Olfr73 or Olfr74 encoding plasmid DNAs and 0.15 μg of the cAMP response element secreted alkaline phosphatase reporter plasmid (pCRE-SEAP) using Lipofectamine 2000 (Invitrogen). Cells were induced 8 h after transfection with cell medium containing the ligand, or cell medium alone. For screening compound library, stock solutions of odorants (0.2–1 M) were prepared from pure compounds either in dimethyl sulfoxide (DMSO, Sigma-Aldrich, Buchs, CH) or ethanol and were stored at −20 °C. Mixtures of 5 to 10 odorants prepared form stock solutions, were diluted in serum-free DMEM and applied to the cells 8 hours after transfection (<100 μM, final individual odorant concentration). Experiments were carried out in triplicates and in parallel with a mock control (cells transfected with non-coding plasmid DNA). A relative SEAP activity [(n-1) times mock level] was calculated for each odorant mixture and those that induced an activity larger than 1 were considered for further analysis.
For odorant dose-dependent measurements of cAMP signaling specific ligands were added at increasing concentrations and measured in duplicates. Odorant-induced responses were measured using the SEAP activity reporter assay 16 h after stimulation. An aliquot of supernatant from each well was then mixed with an equal volume of 1 M diethanolamine bicarbonate (pH 9.8) containing 20 mM p-nitrophenyl phosphate and 1 mM MgCl2 (Sigma). The kinetics of hydrolysis of p-nitrophenol phosphate by alkaline phosphatase was determined by measuring the absorbance at 410 nm using a multiwell plate reader (SpectraMax 360, Molecular Devices). […] Dose response curves and EC50 values were then determined by fitting these points with the Hill equation using IGOR Pro software (WaveMetrics, Portland, OR, USA). Statistical significance of the differences in EC50 values was analyzed using a two-tailed Student’s t test. p values below 0.05 were considered as being significant.

Olfr74 F260Y = Olfr74 F260Y (Mus musculus, UniProt Q920P1, F260Y); experiment: cAMP reporter gene (SEAP) assay, Olfr74 F260Y in Hana3A cells; format: cell-based
Description: as §1
For odorant dose-dependent measurements of cAMP signaling specific ligands were added at increasing concentrations and measured in duplicates. Odorant-induced responses were measured using the SEAP activity reporter assay 16 h after stimulation. An aliquot of supernatant from each well was then mixed with an equal volume of 1 M diethanolamine bicarbonate (pH 9.8) containing 20 mM p-nitrophenyl phosphate and 1 mM MgCl2 (Sigma). The kinetics of hydrolysis of p-nitrophenol phosphate by alkaline phosphatase was determined by measuring the absorbance at 410 nm using a multiwell plate reader (SpectraMax 360, Molecular Devices). To remove SEAP activity background noise from the measurements, the mean value of mock control SEAP activity (Supplementary Figures 8 and 9) was subtracted from the mean value of OR-induced SEAP activity for each odorant concentration. Dose response curves and EC50 values were then determined by fitting these points with the Hill equation using IGOR Pro software (WaveMetrics, Portland, OR, USA). Statistical significance of the differences in EC50 values was analyzed using a two-tailed Student’s t test. p values below 0.05 were considered as being significant.

Olfr74 A113S-A208E-F260Y = experiment: cAMP reporter gene (SEAP) assay, Olfr74 triple mutant in Hana3A cells; format: cell-based, mouse; conditions: result in words
Description: as §1, with “Mixtures of 5 to 10 odorants prepared form stock solutions, were diluted in serum-free DMEM and applied to the cells 8 hours after transfection (<100 μM, final individual odorant concentration). Experiments were carried out in triplicates and in parallel with a mock control (cells transfected with non-coding plasmid DNA).” left out
For odorant dose-dependent measurements of cAMP signaling specific ligands were added at increasing concentrations and measured in duplicates. Odorant-induced responses were measured using the SEAP activity reporter assay 16 h after stimulation. […] The kinetics of hydrolysis of p-nitrophenol phosphate by alkaline phosphatase was determined by measuring the absorbance at 410 nm using a multiwell plate reader (SpectraMax 360, Molecular Devices). […]

Olfr74 = tested on: Olfr74; design: method as in PMID 12767924; conditions: HEK cells ref 31; cited from earlier work
[1] = EC50 Olfr73 wt, Hana3A cells, SEAP reporter, dash in Table 1 = no measurable response
[2] = read-out: EC50 Olfr73 S113A, dash in Table 1 = no measurable response
[3] = EC50 Olfr73 (E208A), Supplementary Table 1, rounded values derived from Fig. 2 and Supplementary Fig. 4, unit inferred
[4] = EC50 Olfr73 E208A, Hana3A cells, SEAP reporter
[5] = read-out: EC50 Olfr73 S113A-E208A-Y260F, dash in Table 1 = no measurable response
[6] = Hana3A cells, SEAP reporter, read-out: EC50 Olfr74 wt
[7] = rounded values derived from Fig. 2 and Supplementary Fig. 4, unit inferred, read-out: EC50 Olfr74 (WT), Supplementary Table 1
[8] = EC50 Olfr74 (F260Y), Supplementary Table 1, rounded values derived from Fig. 2 and Supplementary Fig. 4, unit inferred
[9] = EC50 Olfr74 F260Y, Hana3A cells, SEAP reporter
[10] = Hana3A cells, SEAP reporter, dash in Table 1 = no measurable response, read-out: EC50 Olfr73 wt
[11] = rounded values derived from Fig. 2 and Supplementary Fig. 4, unit inferred, read-out: EC50 Olfr73 (WT), Supplementary Table 1
[12] = dash in Table 1 = no measurable response, read-out: EC50 Olfr73 S113A
[13] = Hana3A cells, SEAP reporter, read-out: EC50 Olfr73 E208A
[14] = dash in Table 1 = no measurable response, read-out: EC50 Olfr73 S113A-E208A-Y260F
[15] = dash in Table 1 = no measurable response, read-out: EC50 Olfr73 Y260F

Sequence of Olfr74 A113S (Q920P1 entry or part of it A113S): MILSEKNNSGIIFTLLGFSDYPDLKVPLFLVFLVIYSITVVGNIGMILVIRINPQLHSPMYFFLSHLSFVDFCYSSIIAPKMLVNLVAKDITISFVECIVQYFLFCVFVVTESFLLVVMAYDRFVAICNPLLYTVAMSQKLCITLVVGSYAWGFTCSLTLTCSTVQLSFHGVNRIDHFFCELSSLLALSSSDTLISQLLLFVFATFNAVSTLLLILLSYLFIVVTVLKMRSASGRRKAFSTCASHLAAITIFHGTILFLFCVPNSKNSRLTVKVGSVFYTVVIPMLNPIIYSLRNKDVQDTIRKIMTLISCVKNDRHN
Sequence of Olfr74 F260Y (Q920P1 entry or part of it F260Y): as the sequence (Q920P1 entry or part of it A113S) above, with S113A, F260Y counted along it

Row | SMILES | EC50 (Olfr73 (mOR-EG) wt; [1]) [µM] | EC50 (Olfr73 S113A; [2]) [µM] | EC50 (Olfr73 E208A; [3]) [µM] | EC50 (Olfr73 E208A; [4]) [µM] | EC50 (Olfr73 S113A-E208A-Y260F; [5]) [µM] | EC50 (Olfr74 (mOR-EV) wt; [6]) | EC50 (Olfr74 (mOR-EV) wt; [7]) [µM] | EC50 (Olfr74 A113S) | EC50 (Olfr74 F260Y; [8]) [µM] | EC50 (Olfr74 F260Y; [9]) | EC50 (Olfr73 (mOR-EG) wt; [10]) | EC50 (Olfr73 (mOR-EG) wt; [11]) [µM] | EC50 (Olfr73 S113A; [12]) [µM] | EC50 (Olfr73 E208A; [13]) | EC50 (Olfr73 S113A-E208A-Y260F; [14]) [µM] | EC50 (Olfr73 Y260F; [15]) [µM] | activation of Olfr74 wild type (Olfr74 (mOR-EV) wt; Hana3A cells, SEAP reporter) | also measured
1 | C=C(C)[C@@H]1CCC2=CC(=O)C[C@@H](C)[C@]2(C)C1 [Nootkatone, nootkatone] | 225 ± 76 | > 100 | > 100 | 277 ± 54 | > 100 | 86 µM and ~90 µM | 90 | 78 µM and ~80 µM | 40 | 35 µM and ~40 µM | – | – | – | – | – | – | – | EC50 (Olfr73 (mOR-EG) wt; EC50 Olfr73 (WT), Supplementary Table 1, rounded values derived from Fig. 2 and Supplementary Fig. 4, unit inferred): > 100 µM; EC50 (Olfr73 Y260F; read-out: EC50 Olfr73 Y260F, dash in Table 1 = no measurable response): > 100 µM
2 | CC(C)=CC1CC(C)CCO1 (centres unmarked) [Rose Oxide, rose oxide] | – | – | – | – | – | 155 ± 21 µM | > 100 | > 100 µM | 40 | 42 µM and ~40 µM | 35 ± 20 µM | 30 | 23 ± 24 | ~10 µM and 10 µM | > 100 | – | – | activation of Olfr74 triple mutant (A113S, A208E, F260Y) (Olfr74 A113S-A208E-F260Y): no detectable activation
3 | C/C=C/c1ccc(OC)c(OC)c1 [MIEG, methyl isoeugenol] | – | > 100 | – | 10 ± 5 | > 100 | – | – | – | – | 406 ± 23 µM | 131 ± 19 µM | – | – | – | – | > 100 | do not activate | –
4 | CCC=CCC1=C(C)CCC1=O [Jasmone, 3-methyl-2-(pent-2-enyl)-cyclopent-2-enone] | – | – | 70 | 66 ± 9 | – | 28 µM and ~30 µM | 30 | 71 µM and ~70 µM | 10 | 8 µM and ~10 µM | – | > 100 | – | – | – | – | – | activation of Olfr73 wild type (Olfr73 (mOR-EG) wt; Hana3A cells, SEAP reporter, result in words): inactive; EC50 (Olfr73 S113A; EC50 Olfr73 S113A, dash in Table 1 = no measurable response): > 100 µM; EC50 (Olfr73 S113A-E208A-Y260F; EC50 Olfr73 S113A-E208A-Y260F, dash in Table 1 = no measurable response): 83 ± 11 µM
5 | COC(=O)c1ccc(O)c(OC)c1 [Methyl vanillate, methyl vanillate] | – | – | – | – | – | – | – | – | – | 447 ± 36 µM | 240 µM and 241 µM | – | > 100 | 347 ± 32 µM | > 100 | > 100 | do not activate | –
6 | CCOc1cc(C=O)ccc1O [Ethyl vanillin, ethyl vanillin] | 35 ± 4 | – | – | – | – | – | – | – | – | 171 ± 35 µM | – | – | 202 ± 44 | 147 ± 11 µM | > 100 | – | – | activation of Olfr74 wild type (Olfr74 (mOR-EV) wt; Hana3A cells, SEAP reporter, listed as ethyl vanillin): no detectable activation; activation of Olfr74 wild type (Olfr74 (mOR-EV) wt; Hana3A cells, SEAP reporter, listed as ethyl-vanillin): no response was detected; also recorded: do not activate; cAMP signalling upon stimulation of Olfr74 (Olfr74): no cAMP signalling
